Measured values as given in US20110105430A1, “PYRROLO [2,3-C] PYRIDINE DERIVATIVES AS P38 KINEASE INHIBITING AGENTS” (priority 2008, published 2011).
pIC50: −log10 of the molar value.

Tests used:
TNF-α = assay: IC50 hWB (TNF-α release assay); type: cell-based; conditions: Homo sapiens
Protocol: Blood was obtained from healthy volunteers by venipuncture using sodium heparin as an anti-coagulant. Peripheral blood mononuclear cells (PBMCs) were isolated using Lymphocyte Separation Medium (ICN) according to manufacturers specifications. Isolated PBMCs were washed 3 times with FIBSS and diluted to a density of 2×10^6 cells/mL in RPMI+5% autologous human serum. 50 μL of the serial dilutions of inhibitor were added to wells of a 96-well tissue culture plate followed by addition of 100 μL of PBMCs and then 50 μL of RPMI complete medium containing 400 ng/mL LPS. A control well of cells without compound but with LPS (maximal stimulation control) and one without compound and without LPS (background control) were included in each titration. The cells were incubated for 16 hours in a humidified incubator at 37° C., 5% CO2. Supernatants were then harvested and TNF-α levels were quantified by immunoassay using commercial reagents (R&D, Inc).

p38α = biological target: T1, p38α (Homo sapiens, UniProt Q16539); assay: p38 kinase assay, p38-α with peptide substrate (Caliper LabChip); type: biochemical
T1 construct: purchased Millipore
Protocol: Alternatively, p38 kinase assays were performed in a reaction volume of 70 μL in a 384-well plate, at 30° for […] under the following conditions: 50 mM Hepes, pH 7.4, 10 mM MgCl2, 1 mg/ml FA Free BSA, 1 mM DTT, 10 μM ATP, 10 μM p38 peptide [Caliper Life Sciences FL-Peptide 8 (5-FAM-IPTSPITTTYFFFKKK-COOH)] and 5.7 nM p38-α (Millipore), or 14.3 nM unactivated MAPKAP kinase-2, 0.18 nM p38-α (Millipore) and 2 uM RSK peptide [Caliper Life Sciences FL-Peptide 11 (5-FAM-KKLNRTLSVA-COOH)]. Serial dilutions of compounds were added to each reaction in 700 nL DMSO. 700 nL of DMSO was added to the control wells of the reaction plate as the no inhibitor control for each inhibitor titration. The reaction was terminated by the addition of 15 μL of a 100 mM EDTA. Product formation was analyzed using the Caliper LabChip 3000. The Separation buffer contained 100 mM HEPES pH 7.5, 0.015% Brij-35, 2.5% Coating Reagent #3 (Caliper Life Sciences) and 10 mM EDTA. Calculation of the substrate product ratios are performed using the HTS Well Analyzer software provided by Caliper Life Sciences and the percent inhibition at each compound concentration is determined.

T1 sequence (Q16539 whole entry): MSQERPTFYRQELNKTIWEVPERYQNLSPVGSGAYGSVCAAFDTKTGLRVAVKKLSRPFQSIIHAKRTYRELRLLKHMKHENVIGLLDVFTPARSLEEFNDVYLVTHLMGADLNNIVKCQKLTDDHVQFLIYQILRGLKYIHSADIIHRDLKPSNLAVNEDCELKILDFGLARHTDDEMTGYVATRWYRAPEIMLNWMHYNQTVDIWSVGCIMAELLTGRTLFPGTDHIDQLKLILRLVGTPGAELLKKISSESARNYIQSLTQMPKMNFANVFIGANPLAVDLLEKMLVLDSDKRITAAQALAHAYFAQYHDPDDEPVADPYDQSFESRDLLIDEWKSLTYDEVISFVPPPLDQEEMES

pIC50 (TNF-α)	pIC50 (p38α)	Structure (SMILES)
6.34	7.35	O=C(c1c(F)cc(F)cc1F)c1c[nH]c2c(=O)n(Cc3nc4ccccc4[nH]3)ccc12 [Example 1, 6-(1H-benzimidazol-2-ylmethyl)-3-(2,4,6-trifluorobenzoyl)-1,6-dihydro-7H-pyrrolo[2,3-c]pyridin-7-one]
6.89	7.57	O=C(c1c(F)cc(F)cc1F)c1c[nH]c2c(=O)n(Cc3nc4cccc(F)c4[nH]3)ccc12 [Example 2, 6-[(4-fluoro-1H-benzimidazol-2-yl)methyl]-3-(2,4,6-trifluorobenzoyl)-1,6-dihydro-7H-pyrrolo[2,3-c]pyridin-7-one]
6.89	7.64	O=C(c1c(F)cc(F)cc1F)c1c[nH]c2c(=O)n(Cc3nc4ccc(F)c(F)c4[nH]3)ccc12 [Example 3, 6-[(4,5-difluoro-1H-benzimidazol-2-yl)methyl]-3-(2,4,6-trifluorobenzoyl)-1,6-dihydro-7H-pyrrolo[2,3-c]pyridin-7-one]
7.06	8.28	O=C(c1c(F)cc(F)cc1F)c1c[nH]c2c(=O)n(Cc3cn4cccnc4n3)ccc12 [Example 5, 6-(imidazo[1,2-a]pyrimidin-2-ylmethyl)-3-(2,4,6-trifluorobenzoyl)-1,6-dihydro-7H-pyrrolo[2,3-c]pyridin-7-one]
7.08	7.74	O=C(c1c(F)cc(F)cc1F)c1c[nH]c2c(=O)n(Cc3nc4cccnc4[nH]3)ccc12 [Example 6, 6-(3H-imidazo[4,5-b]pyridin-2-ylmethyl)-3-(2,4,6-trifluorobenzoyl)-1,6-dihydro-7H-pyrrolo[2,3-c]pyridin-7-one]
6.61	7.42	O=C(c1c(F)cccc1F)c1c[nH]c2c(=O)n(Cc3nc4cccnc4[nH]3)ccc12 [Example 7, 3-(2,6-difluorobenzoyl)-6-(3H-imidazo[4,5-b]pyridin-2-ylmethyl)-1,6-dihydro-7H-pyrrolo[2,3-c]pyridin-7-one]
6.60	7.62	O=C(c1c(F)cc(F)cc1F)c1c[nH]c2c(=O)n(Cc3nc4ncc(Br)cc4[nH]3)ccc12 [Example 8, 6-[(6-bromo-3H-imidazo[4,5-b]pyridin-2-yl)methyl]-3-(2,4,6-trifluorobenzoyl)-1,6-dihydro-7H-pyrrolo[2,3-c]pyridin-7-one]
6.66	7.80	Cc1ccc2nc(Cn3ccc4c(C(=O)c5c(F)cccc5F)c[nH]c4c3=O)cn2n1 [Example 9, 3-(2,6-difluorobenzoyl)-6-[(6-methylimidazo[1,2-b]pyridazin-2-yl)methyl]-1,6-dihydro-7H-pyrrolo[2,3-c]pyridin-7-one]
5.86	7.40	O=C(c1c(F)cc(F)cc1F)c1c[nH]c2c(=O)n(Cc3nc4ccccc4o3)ccc12 [Example 10, 6-(1,3-benzoxazol-2-ylmethyl)-3-(2,4,6-trifluorobenzoyl)-1,6-dihydro-7H-pyrrolo[2,3-c]pyridin-7-one]
7.41	7.85	Cc1cnc2nc(Cn3ccc4c(C(=O)c5c(F)cc(F)cc5F)c[nH]c4c3=O)[nH]c2c1 [Example 11, 6-[(6-methyl-3H-imidazo[4,5-b]pyridin-2-yl)methyl]-3-(2,4,6-trifluorobenzoyl)-1,6-dihydro-7 H-pyrrolo[2,3-c]pyridin-7-one]
6.85	7.60	Cc1cnc2nc(Cn3ccc4c(C(=O)c5c(F)cccc5F)c[nH]c4c3=O)[nH]c2c1 [Example 12, 3-(2,6-difluorobenzoyl)-6-[(6-methyl-3H-imidazo[4,5-b]pyridin-2-yl)methyl]-1,6-dihydro-7H-pyrrolo[2,3-c]pyridin-7-one]
5.82	7.54	O=C(c1c(F)cncc1F)c1c[nH]c2c(=O)n(Cc3cc4ccccn4n3)ccc12 [Example 13, 3-(3,5-difluoroisonicotinoyl)-6-(pyrazolo[1,5-c]pyridin-2-ylmethyl)-1,6-dihydro-7H-pyrrolo[2,3-c]pyridin-7-one]
6.31	7.66	Cc1cc(F)c(C(=O)c2c[nH]c3c(=O)n(Cc4cc5ccccn5n4)ccc23)c(F)c1 [Example 14, 3-(2,6-difluoro-4-methylbenzoyl)-6-(pyrazolo[1,5-a]pyridin-2-ylmethyl)-1,6-dihydro-7H-pyrrolo[2,3-c]pyridin-7-one]
6.99	8.07	O=C(NCC(F)(F)F)c1cnc2nc(Cn3ccc4c(C(=O)c5c(F)cc(F)cc5F)c[nH]c4c3=O)[nH]c2c1 [Example 15, 2-{[7-oxo-3-(2,4,6-trifluorobenzoyl)-1,7-dihydro-6H-pyrrolo[2,3-c]pyridin-6-yl]methyl}-N-(2,2,2-trifluoroethyl)-3H-imidazo[4,5-b]pyridine-6-carboxamide]
6.66	7.72	O=C(c1c(F)cc(F)cc1F)c1c[nH]c2c(=O)n(Cc3nc4ncc(C(=O)N5CCOCC5)cc4[nH]3)ccc12 [Example 16, 6-{[6-(morpholin-4-ylcarbonyl)-1H-imidazo[4,5-b]pyridin-2-yl]methyl}-3-(2,4,6-trifluorobenzoyl)-1,6-dihydro-7H-pyrrolo[2,3-c]pyridin-7-one]
	7.89	O=C(c1c(F)cc(F)cc1F)c1c[nH]c2c(=O)n(Cc3nc4ccncc4[nH]3)ccc12 [Example 17, 6-(3H-imidazo[4,5-c]pyridin-2-ylmethyl)-3-(2,4,6-trifluorobenzoyl)-1,6-dihydro-7H-pyrrolo[2,3-c]pyridin-7-one]
6.70	7.92	O=C(c1c(F)cc(F)cc1F)c1c[nH]c2c(=O)n(Cc3cn4ccc(C(F)(F)F)cc4n3)ccc12 [Example 18, 3-(2,4,6-trifluorobenzoyl)-6-{[(7-trifluoromethyl)imidazo[1,2-c]pyridin-2-yl]methyl}-1,6-dihydro-7H-pyrrolo[2,3-c]pyridin-7-one]
	8.89	NC(=O)c1ccn2cc(Cn3ccc4c(C(=O)c5c(F)cc(F)cc5F)c[nH]c4c3=O)nc2c1 [Example 22, 2-{[7-oxo-3-(2,4,6-trifluorobenzoyl)-1,7-dihydro-6H-pyrrolo[2,3-c]pyridin-6-yl]methyl}imidazo[1,2-a]pyridine-7-carboxamide]
	8.70	O=C(O)c1ccn2cc(Cn3ccc4c(C(=O)c5c(F)cc(F)cc5F)c[nH]c4c3=O)nc2c1 [Example 23, 2-{[7-oxo-3-(2,4,6-trifluorobenzoyl)-1,7-dihydro-6H-pyrrolo[2,3-c]pyridin-6-yl]methyl}imidazo[1,2-a]pyridine-7-carboxylic acid]
	9.00	CNC(=O)c1ccn2cc(Cn3ccc4c(C(=O)c5c(F)cc(F)cc5F)c[nH]c4c3=O)nc2c1 [Example 25, N-methyl-2-{[7-oxo-3-(2,4,6-trifluorobenzoyl)-1,7-dihydro-6H-pyrrolo-[2,3-c]pyridin-6-yl]methyl}-imidazo[1,2-c]pyridine-7-carboxamide]
	8.52	CNC(=O)c1ccc2nc(Cn3ccc4c(C(=O)c5c(F)cc(F)cc5F)c[nH]c4c3=O)[nH]c2c1 [Example 27, N-methyl-2-{[7-oxo-3-(2,4,6-trifluorobenzoyl)-1,7-dihydro-6H-pyrrolo[2,3-c]pyridin-6-yl]methyl}-1H-benzimidazole-5-carboxamide]
	6.60	O=c1c2[nH]cc(C(O)c3ccc(F)cc3F)c2ccn1Cc1cn2ccccc2n1 (centres unmarked) [Example 28, 3-[(2,4-difluorophenyl)(hydroxy)methyl]-6-(imidazo[1,2-a]pyridin-2-ylmethyl)-1,6-dihydro-7H-pyrrolo[2,3-c]pyridin-7-one]
